Measurements reported in patent US20240418723A1, “SEQUENTIAL TREATMENTS AND BIOMARKERS TO REVERSE RESISTANCE TO KINASE INHIBITORS” (Queen Mary University of London, priority 2021, published 2024).

Tests used:
[1] = test system: P31/Fuj AML cells; assay: Sequential treatment of P31/Fuj cells (ATRA or LSD1 inhibitor 5 days, then MEKi 3 days; also co-treatment and reverse treatment): cell viability, cell number, apoptosis, CDI; format: cell-based
Experimental: (§1) The Bliss independence model was used to derive coefficients of drug interaction (CDI) values, where CDI <1 indicates significant priming by the […] (synergistic effect).
(§2) For the proliferation/viability assays, cells were seeded in T75 flasks (0.5×10^6 cells/mL of RPMI/FBS medium) and exposed for 5 days to either vehicle or epigenetic modifier. Unless otherwise specified, the final concentration for GSK2879552 (LSD1i), […] (EZH2i), pinometostat (DOT1Li) and ATRA was 1 μM while for decitabine (DNMTAi) and vorinostat (HDACi) was 100 nM; all epigenetic inhibitors were diluted in DMSO, while ATRA was diluted in Et-OH. Vehicle concentration was kept at 0.1%. […] The final concentration of DMSO was kept at 0.1%. Finally, cells were transferred to 96-well plates (100 μL per well in 3 technical replicates per condition) and cell viability and proliferation were assessed using Guava and ApoTox-Glo Triplex analyses, as indicated below.
(§3) For Guava analysis, cells were stained with Guava ViaCount reagent (Luminex #4000-0040) in 96-well plates, by mixing 150 μL of cell suspension with 75 μL of reagent, and left to incubate for a minimum of 10 minutes in the dark, after which they were processed through a Guava easyCyte flow cytometer (Luminex #0500-5005). Flow cytometry data were analysed using CytoSoft (v2.5.7). Viability and cell number values were expressed relative to vehicle control.
For ApoTox-Glo analysis, cell suspensions were transferred to opaque 96-well plates (100 μL per well) and viability and apoptosis measured using ApoTox-Glo Triplex Assay (Promega #G6320). 20 μL of Viability/Cytotoxicity reagent (containing GF-AFC and bis-AAF-R110 substrates) were added to each well, then incubated at 37° C. for 1 hour. Live cell and cytotoxicity outputs were measured on FLUOstar Omega microplate reader (BMG Labtech). To obtain the live cell output, fluorescence was measured at 355EX/520EM (wavelengths in nm); for the cytotoxicity output, fluorescence was measured at 485EX/520EM. Following this, 100 μL of Caspase-Glo 3/7 reagent were added to each well and incubated at 25° C. for 1 hour. Luminescence was then measured on FLUOstar Omega microplate reader (BMG Labtech). The fluorescence and luminescence signals thus obtained were corrected to the respective background controls (culture medium with no cells). Relative cell number values were obtained by normalising live cell outputs to vehicle control. Apoptosis values were obtained by dividing luminescence outputs to the respective live cell outputs, then normalising to vehicle control.
The extent of drug interaction was calculated in Microsoft Excel 2016 using the CDI formula AB/(A*B), where AB is the normalized reduction in cell viability of the sequential treatment, and A and B are the effects of single treatments. Statistical significance of CDI values for each AML sample was determined using a one sample t-test (base R package) with the null hypothesis being that the mean Log2(CDI) equals 0.

[2] = test system: AML cell lines; assay: Small-scale drug screens: epigenetic antagonist 5 days followed by kinase inhibitor 3 days, cell viability/proliferation, CDI; format: cell-based
Experimental: as §1, §2
as §3, with “Viability and cell number values were expressed relative to vehicle control.” left out

[3] = test system: P31/Fuj cells; assay: Phosphoproteomics (LC-MS/MS) and kinase network analysis of treated P31/Fuj cells
Experimental: To study ATRA effect over the phosphoproteome, P31/Fuj cells (10×10^6 cells at 0.5×10^6 cell/mL) were seeded in T75 flask and treated with either Et-OH, 1 μM ATRA or 10 μM ATRA for 5 days. […] For both experiments, cells were collected by centrifugation (1500 rpm for 5 min at 5° C.), then cell pellets were washed twice with ice cold PBS supplemented with phosphatase inhibitors (1 mM Na3VO4, 1 mM NaF) and stored at −80° C. Pellets were processed for phosphoproteomics analysis as indicated below.
In brief, cell pellets were lysed in 300 μL of urea buffer (8 M urea in 20 mM HEPES, pH 8.0, supplemented with 1 mM Na3VO4, 1 mM NaF, 1 mM Na4P2O7 and 1 mM P-glycerophosphate). Lysates were further homogenized by sonication (30 cycles of 30 s on 30 s off; Diagenode Bioruptor® Plus) and insoluble material was removed by centrifugation. Protein was quantified using BCA (Thermo Fisher Scientific). Then, 500 μg of protein were subjected to cysteine alkylation using sequential incubation with 10 mM dithiothreitol (DDT) and 16.6 mM iodoacetamide (IAM) for 1 h and 30 min, respectively, at 25° C. with agitation. Trypsin beads (50% slurry of TLCK-trypsin; Thermo Fisher Scientific; Cat. #20230) were equilibrated with 3 washes with 20 mM HEPES (pH 8.0), the urea concentration in the protein suspensions was reduced to 2 M by the addition of 20 mM HEPES (pH 8.0), 100 μL of equilibrated trypsin beads were added and the samples were incubated overnight at 37° C. Trypsin beads were removed by centrifugation (2000×g at 5° C. for 5 min) and the resulting peptide solutions were desalted through Oasis HLB cartridges (Waters) following the manufacturer's indications. Briefly, cartridges were set in a vacuum manifold device and the pressure was adjusted to 5 mmHg. Then, cartridges were conditioned with 1 mL acetonitrile (ACN) and equilibrated with 2.5 mL of wash solution (0.1% trifluoroacetic acid (TFA), 2% ACN). Peptides were loaded in the cartridges and washed with 1 mL of wash solution. Finally, peptides were eluted with 500 μL of glycolic acid buffer 1 (1 M glycolic acid, 5% TFA, 50% ACN). Enrichment of phosphorylated peptides was performed with TiO2 Beads (GL Sciences). The eluents were normalized to 1 mL with glycolic acid buffer 2 (1 M glycolic acid, 5% TFA, 80% ACN) and incubated with 50 μl of TiO2 buffer (50% slurry in 1% TFA) for 5 min at room temperature. TiO2 beads were packed by centrifugation into empty spin columns (Glygen Corporation; Cat. TT2EMT) previously washed with ACN. TiO2 beads were sequentially washed by centrifugation (1500×g for 3 min) with 100 μL of glycolic acid buffer 2, ammonium acetate solution (100 mM ammonium acetate in 25% ACN) and twice with neutral solution (10% ACN). For phosphopeptide elution, spin tips were transferred to fresh tubes, 50 μL of elution solution (5% NH4OH, 7.5% ACN) were added and tips were centrifuged at 1500×g for 3 min. The elution step was repeated a total of 4 times. Finally, samples were snap frozen, dried in a SpeedVac and phosphopeptide pellets were stored at −80° C.

[4] = LSD1i and MEKi co-treatment 3 days, P31/Fuj (FIG. 10B)
[5] = LSD1i by itself, 2.5 z-score threshold (FIG. 6C)
[6] = LSD1i relative to control (FIGS. 6 C, D, 18B)
[7] = LSD1i treatment, P31/Fuj (FIG. 19A)

In the case of `O=C(O)c1ccc(CN2CCC(CN[C@@H]3C[C@H]3c3ccccc3)CC2)cc1` [GSK2879552], the “Log2 CDI, reverse treatment” value ([1]; 3-day pre-treatment with MEKi followed by 5-day LSD1i, additive to strongly antagonistic, P31/Fuj) is reported as > 0, the “Log2 CDI based on cell number and apoptosis, 5+3 days sequential treatment” value ([1]; LSD1i 5 days then MEKi 3 days, all concentrations above 10 nM, strongly synergistic, P31/Fuj (FIG. 10A)) is reported as “below 0” and the “sensitisation to the effects of MEKi (suppressing proliferation and inducing apoptosis)” value ([1]; LSD1i 5 days then MEKi 3 days, dose-dependent manner, P31/Fuj cells (FIG. 2E)) is reported as “sensitised P31/Fuj cells to the effects of MEKi”. The “CDI for apoptosis, 3-day co-treatment” value [1, 4] was “mildly synergistic”, the “CDI for proliferation, 3-day co-treatment” value [1, 4] was “near additive” and the “number of AML cell lines sensitised to midostaurin, pictilisib or trametinib” value ([2]; LSD1i pre-treatment, out of the 12 AML cell lines tested (FIG. 2D)) was 9. The “-Log2 CDI (coefficient of drug interaction), sensitisation to kinase inhibitor treatment” value ([2]; epigenetic antagonist 5 days, then MEK, mTOR or PKC inhibitor 3 days, cell viability, Bliss independence, CDI <1 = synergistic (FIG. 2C)) was “one of the most potent sensitisers to kinase inhibitor treatment”, the “phosphorylation sites affected by kinase inhibitors after LSD1i pre-treatment versus vehicle” value ([3]; 0.5 μM LSD1i 5 days, then 1 μM kinase inhibitor 1 h, P31/Fuj (FIG. 6B)) was “fewer phosphorylation sites” and the “c-Myc phosphorylation at S62” value ([3]; LSD1i 5 days, P31/Fuj (FIG. 6F)) was “reduced”. For the same compound, the “kinase activities (node centrality)” value ([3]; LSD1i by itself relative to control (FIG. 6D)) was “decreased more kinase activities than it increased”, the “number of network axes with decreased enrichment” value [3, 5] was 18 and the “number of network axes with increased enrichment” value [3, 5] was 6. The “effect of PI3K, AKT, MEK and ERK inhibitors in increasing phosphorylation of epigenetic regulators and histones, CDKs, cyclins and DNA repair proteins” value ([3]; LSD1i pre-treatment (FIG. 6H, 19 D, E)) was “blunted”, the “circuitries containing AKT and MTOR” value [3, 6] was “decrease” and the “circuitries with PKCI and MEK1 (MAP2K1)” value [3, 6] was “increased”. The “AHNAK pS5110 phosphorylation” value [3, 7] was “increased”, the “PI3K/AKT pathway markers GSK3B pS13 and RPS6 p236, and MAPK pathway marker MAPK3 (ERK1) pT202” value [3, 7] was “decreased” and the “kinase inhibitor-induced increase in phosphorylation of LSD1/KDM1A at T95 and S93” value ([3]; control cells versus LSD1i pre-treated cells (FIG. 6G, 19A)) was “not in cells pre-treated with LSD1i”.
